Measurements taken from ChEMBL document CHEMBL5226343, “Structure-Activity Relationship of USP5 Inhibitors” (J Med Chem, 2021).

Tests used:
[1] = target: T1, Protein deacetylase HDAC6 (Homo sapiens, UniProt Q9UBN7)
T1 sequence (Q9UBN7 whole entry): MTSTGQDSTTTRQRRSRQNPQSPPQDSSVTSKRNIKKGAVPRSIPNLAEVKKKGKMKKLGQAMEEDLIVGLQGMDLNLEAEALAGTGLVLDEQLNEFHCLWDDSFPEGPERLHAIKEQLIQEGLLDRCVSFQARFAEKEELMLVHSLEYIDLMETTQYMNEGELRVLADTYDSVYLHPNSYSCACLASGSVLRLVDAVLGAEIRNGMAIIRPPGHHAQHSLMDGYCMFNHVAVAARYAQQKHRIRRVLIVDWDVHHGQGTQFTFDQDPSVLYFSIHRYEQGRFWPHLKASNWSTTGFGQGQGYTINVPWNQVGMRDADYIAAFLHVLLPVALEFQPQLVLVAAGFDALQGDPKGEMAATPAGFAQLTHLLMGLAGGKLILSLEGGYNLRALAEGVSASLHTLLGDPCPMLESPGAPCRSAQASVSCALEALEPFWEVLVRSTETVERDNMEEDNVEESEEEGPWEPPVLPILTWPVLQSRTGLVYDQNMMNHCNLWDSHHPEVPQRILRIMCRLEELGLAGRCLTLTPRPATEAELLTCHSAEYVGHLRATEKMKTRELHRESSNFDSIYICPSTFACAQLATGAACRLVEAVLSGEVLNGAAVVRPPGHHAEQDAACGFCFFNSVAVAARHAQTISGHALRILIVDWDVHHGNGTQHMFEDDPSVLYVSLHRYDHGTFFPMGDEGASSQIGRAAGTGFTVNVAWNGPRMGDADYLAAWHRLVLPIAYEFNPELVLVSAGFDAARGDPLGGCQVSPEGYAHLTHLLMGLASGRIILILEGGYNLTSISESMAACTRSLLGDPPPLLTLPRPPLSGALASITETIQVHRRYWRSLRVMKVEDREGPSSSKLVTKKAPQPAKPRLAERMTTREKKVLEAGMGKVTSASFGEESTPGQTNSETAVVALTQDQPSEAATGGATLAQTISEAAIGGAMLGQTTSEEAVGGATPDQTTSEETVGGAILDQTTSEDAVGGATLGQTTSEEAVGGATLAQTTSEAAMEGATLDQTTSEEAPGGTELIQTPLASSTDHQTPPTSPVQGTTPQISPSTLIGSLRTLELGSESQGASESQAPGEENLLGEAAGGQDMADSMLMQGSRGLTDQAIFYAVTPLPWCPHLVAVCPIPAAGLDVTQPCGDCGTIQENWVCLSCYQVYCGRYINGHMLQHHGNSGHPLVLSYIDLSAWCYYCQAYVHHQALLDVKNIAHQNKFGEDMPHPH

[2] = target: Ubiquitin carboxyl-terminal hydrolase 9X (Homo sapiens) (UniProt Q93008); test: Inhibition of USP9X (unknown origin) at 2.5 uM
[3] = target: Ubiquitin carboxyl-terminal hydrolase isozyme L1 (Homo sapiens) (UniProt P09936); test: Inhibition of UCH-L1 (unknown origin) at 2.5 uM
[4] = target: T2, Ubiquitin carboxyl-terminal hydrolase 5 (Homo sapiens) (UniProt P45974); test: Inhibition of USP5 (unknown origin) at 2.5 uM
T2 sequence (whole entry): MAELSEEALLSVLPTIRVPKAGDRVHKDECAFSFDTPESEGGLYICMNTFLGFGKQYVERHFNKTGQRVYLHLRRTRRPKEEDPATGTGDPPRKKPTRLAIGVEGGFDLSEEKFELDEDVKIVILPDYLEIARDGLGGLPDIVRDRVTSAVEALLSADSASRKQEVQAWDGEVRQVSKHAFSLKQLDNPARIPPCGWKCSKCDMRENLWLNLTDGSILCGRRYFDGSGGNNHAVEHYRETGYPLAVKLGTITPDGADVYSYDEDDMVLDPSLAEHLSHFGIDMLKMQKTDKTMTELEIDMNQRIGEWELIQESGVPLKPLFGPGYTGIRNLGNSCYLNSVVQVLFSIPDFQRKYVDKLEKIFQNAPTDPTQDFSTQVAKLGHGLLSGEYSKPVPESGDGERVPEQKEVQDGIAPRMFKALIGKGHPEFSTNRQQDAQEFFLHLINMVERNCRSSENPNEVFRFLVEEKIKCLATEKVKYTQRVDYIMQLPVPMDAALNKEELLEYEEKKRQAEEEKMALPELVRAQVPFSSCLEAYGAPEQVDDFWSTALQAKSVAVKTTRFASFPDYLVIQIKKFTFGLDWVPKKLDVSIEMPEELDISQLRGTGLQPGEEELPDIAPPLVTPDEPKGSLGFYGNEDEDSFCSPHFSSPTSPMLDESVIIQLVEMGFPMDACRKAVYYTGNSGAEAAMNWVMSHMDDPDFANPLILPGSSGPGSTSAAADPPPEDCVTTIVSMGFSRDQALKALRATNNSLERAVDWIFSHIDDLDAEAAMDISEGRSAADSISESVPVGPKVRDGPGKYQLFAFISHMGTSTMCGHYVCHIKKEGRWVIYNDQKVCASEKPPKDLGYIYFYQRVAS

[5] = target: T3, Ubiquitin carboxyl-terminal hydrolase 2 (Homo sapiens, UniProt O75604); test: Inhibition of USP2 (unknown origin)
T3 sequence (O75604 whole entry): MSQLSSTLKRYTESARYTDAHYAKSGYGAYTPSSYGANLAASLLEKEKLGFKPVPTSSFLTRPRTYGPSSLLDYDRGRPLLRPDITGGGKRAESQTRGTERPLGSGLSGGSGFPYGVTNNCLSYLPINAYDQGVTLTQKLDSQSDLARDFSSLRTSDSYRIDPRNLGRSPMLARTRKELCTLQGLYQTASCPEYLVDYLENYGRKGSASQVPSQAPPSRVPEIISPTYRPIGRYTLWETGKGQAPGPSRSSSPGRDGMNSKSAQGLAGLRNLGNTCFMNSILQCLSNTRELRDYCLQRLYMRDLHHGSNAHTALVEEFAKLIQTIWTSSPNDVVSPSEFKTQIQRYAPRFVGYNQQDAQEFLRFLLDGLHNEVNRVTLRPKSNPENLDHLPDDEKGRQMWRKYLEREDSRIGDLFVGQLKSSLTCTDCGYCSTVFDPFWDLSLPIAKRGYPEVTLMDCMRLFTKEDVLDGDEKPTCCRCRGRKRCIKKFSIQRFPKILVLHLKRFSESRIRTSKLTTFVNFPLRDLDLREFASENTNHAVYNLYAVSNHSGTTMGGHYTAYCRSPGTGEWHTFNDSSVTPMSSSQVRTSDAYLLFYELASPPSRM

[6] = target: T4, Ubiquitin carboxyl-terminal hydrolase 4 (Homo sapiens, UniProt Q13107); test: Inhibition of USP4 (unknown origin)
T4 sequence (Q13107 whole entry): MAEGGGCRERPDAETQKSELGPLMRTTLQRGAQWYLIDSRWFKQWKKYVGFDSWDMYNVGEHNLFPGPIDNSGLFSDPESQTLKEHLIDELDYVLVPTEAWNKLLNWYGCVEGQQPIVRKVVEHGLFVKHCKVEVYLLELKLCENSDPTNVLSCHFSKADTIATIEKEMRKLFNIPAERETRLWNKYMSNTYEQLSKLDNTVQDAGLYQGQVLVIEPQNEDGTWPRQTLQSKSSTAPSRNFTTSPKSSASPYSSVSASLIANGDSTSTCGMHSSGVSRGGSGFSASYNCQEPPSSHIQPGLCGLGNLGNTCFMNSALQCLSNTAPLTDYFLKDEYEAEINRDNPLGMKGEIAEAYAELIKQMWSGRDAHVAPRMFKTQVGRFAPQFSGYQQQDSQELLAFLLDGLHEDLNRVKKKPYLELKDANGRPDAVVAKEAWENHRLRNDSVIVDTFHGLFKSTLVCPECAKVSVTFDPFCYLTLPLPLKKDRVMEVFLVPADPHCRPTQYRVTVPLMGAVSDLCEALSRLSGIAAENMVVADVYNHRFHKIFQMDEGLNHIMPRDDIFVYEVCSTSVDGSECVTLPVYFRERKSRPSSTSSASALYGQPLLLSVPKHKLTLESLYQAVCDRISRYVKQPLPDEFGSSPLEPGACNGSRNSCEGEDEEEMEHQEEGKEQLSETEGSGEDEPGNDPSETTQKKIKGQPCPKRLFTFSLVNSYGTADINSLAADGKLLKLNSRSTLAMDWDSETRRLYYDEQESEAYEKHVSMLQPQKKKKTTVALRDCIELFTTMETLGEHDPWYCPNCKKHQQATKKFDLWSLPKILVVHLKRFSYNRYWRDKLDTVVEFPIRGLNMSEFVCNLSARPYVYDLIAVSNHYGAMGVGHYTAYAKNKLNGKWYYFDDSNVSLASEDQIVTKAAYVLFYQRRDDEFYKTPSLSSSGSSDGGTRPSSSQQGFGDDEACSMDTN

[7] = target: T5, Ubiquitin carboxyl-terminal hydrolase 5 (Homo sapiens, UniProt P45974); test: Inhibition of USP5 (unknown origin)
T5 sequence (P45974 whole entry): T2 sequence (whole entry)

[8] = target: Ubiquitin carboxyl-terminal hydrolase 7 (Homo sapiens, UniProt Q93009); test: Inhibition of USP7 (unknown origin)
[9] = target: T6, Ubiquitin carboxyl-terminal hydrolase 8 (Homo sapiens, UniProt P40818); test: Inhibition of USP8 (unknown origin)
T6 sequence (P40818 whole entry): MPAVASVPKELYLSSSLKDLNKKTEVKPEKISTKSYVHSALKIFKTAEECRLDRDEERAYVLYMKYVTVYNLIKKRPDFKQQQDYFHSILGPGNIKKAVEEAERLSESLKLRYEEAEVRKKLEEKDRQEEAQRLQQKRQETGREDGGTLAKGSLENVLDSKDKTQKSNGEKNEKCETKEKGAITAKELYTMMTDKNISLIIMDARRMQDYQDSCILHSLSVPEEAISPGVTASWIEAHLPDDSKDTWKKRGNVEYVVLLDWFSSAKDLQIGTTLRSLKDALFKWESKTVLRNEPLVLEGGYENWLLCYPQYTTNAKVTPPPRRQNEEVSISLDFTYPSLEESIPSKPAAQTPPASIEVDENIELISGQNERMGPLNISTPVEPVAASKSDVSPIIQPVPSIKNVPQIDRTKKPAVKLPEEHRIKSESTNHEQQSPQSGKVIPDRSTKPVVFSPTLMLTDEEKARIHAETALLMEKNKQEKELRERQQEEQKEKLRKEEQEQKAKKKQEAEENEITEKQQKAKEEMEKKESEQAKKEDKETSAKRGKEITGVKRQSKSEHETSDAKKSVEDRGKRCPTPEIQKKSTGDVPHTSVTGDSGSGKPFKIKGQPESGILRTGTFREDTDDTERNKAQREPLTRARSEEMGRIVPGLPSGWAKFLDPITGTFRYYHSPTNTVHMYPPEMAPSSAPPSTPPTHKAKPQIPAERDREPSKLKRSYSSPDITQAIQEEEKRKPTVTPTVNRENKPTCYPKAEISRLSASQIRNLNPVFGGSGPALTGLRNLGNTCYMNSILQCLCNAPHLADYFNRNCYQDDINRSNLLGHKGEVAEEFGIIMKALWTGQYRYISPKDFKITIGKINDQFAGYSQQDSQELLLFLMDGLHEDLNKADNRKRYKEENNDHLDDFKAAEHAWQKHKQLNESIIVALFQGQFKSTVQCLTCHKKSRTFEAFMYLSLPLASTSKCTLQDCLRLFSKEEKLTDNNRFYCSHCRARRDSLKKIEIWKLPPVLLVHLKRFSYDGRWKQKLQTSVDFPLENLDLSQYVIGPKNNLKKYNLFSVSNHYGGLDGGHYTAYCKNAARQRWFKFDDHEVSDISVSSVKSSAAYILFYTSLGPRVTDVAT

[10] = Metabolic stability of the compound in human liver microsomes assessed as parent compound remaining at 1 uM measured for 60 mins in presence of NADPH regenerating system by LC/MS analysis; type: ADME, Microsome; conditions: read-out: Stability
[11] = Metabolic stability of the compound in CD-1 mouse liver microsomes assessed as parent compound remaining at 1 uM measured after 60 mins in presence of NADPH regenerating system by LC/MS analysis; type: ADME, Microsome; conditions: read-out: Stability

Ubiquitin carboxyl-terminal hydrolase isozyme L1 (Homo sapiens), sequence (P09936 whole entry, looked up): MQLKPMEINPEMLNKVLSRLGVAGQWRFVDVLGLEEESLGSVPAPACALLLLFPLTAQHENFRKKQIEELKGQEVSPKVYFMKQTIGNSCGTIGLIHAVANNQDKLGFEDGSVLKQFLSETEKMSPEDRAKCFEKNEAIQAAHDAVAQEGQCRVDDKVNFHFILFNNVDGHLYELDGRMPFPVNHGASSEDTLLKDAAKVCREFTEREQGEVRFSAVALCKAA
Ubiquitin carboxyl-terminal hydrolase 7, sequence (Q93009 whole entry): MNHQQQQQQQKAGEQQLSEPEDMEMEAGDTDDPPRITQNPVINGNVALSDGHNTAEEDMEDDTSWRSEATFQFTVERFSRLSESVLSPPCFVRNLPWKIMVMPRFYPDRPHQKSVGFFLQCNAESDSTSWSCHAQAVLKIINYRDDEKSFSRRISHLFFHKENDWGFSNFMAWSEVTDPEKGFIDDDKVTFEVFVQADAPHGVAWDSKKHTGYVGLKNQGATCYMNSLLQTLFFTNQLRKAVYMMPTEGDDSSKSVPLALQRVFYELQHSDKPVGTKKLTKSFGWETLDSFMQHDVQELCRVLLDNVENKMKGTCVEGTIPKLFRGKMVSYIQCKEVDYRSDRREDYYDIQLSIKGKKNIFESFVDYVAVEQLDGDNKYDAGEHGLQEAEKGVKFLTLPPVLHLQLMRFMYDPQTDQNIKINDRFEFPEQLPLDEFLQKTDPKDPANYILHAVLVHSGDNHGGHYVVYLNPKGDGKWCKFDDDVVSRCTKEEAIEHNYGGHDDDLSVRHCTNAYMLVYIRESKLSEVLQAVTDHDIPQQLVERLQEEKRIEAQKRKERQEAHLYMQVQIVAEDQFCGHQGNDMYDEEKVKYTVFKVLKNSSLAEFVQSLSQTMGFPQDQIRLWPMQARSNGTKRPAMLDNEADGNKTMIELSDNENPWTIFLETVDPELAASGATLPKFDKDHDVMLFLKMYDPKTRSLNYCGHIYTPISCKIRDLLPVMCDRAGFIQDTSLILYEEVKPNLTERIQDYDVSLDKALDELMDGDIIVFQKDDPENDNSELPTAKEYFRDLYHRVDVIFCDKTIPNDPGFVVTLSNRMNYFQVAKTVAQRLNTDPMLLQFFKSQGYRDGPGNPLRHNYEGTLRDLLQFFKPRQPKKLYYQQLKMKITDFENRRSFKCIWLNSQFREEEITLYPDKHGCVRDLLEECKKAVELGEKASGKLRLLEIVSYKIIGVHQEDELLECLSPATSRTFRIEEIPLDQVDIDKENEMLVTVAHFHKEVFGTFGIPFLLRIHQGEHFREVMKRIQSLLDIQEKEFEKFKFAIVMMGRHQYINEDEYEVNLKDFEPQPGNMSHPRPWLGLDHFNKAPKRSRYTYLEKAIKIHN
Ubiquitin carboxyl-terminal hydrolase 9X (Homo sapiens), sequence (Q93008 whole entry): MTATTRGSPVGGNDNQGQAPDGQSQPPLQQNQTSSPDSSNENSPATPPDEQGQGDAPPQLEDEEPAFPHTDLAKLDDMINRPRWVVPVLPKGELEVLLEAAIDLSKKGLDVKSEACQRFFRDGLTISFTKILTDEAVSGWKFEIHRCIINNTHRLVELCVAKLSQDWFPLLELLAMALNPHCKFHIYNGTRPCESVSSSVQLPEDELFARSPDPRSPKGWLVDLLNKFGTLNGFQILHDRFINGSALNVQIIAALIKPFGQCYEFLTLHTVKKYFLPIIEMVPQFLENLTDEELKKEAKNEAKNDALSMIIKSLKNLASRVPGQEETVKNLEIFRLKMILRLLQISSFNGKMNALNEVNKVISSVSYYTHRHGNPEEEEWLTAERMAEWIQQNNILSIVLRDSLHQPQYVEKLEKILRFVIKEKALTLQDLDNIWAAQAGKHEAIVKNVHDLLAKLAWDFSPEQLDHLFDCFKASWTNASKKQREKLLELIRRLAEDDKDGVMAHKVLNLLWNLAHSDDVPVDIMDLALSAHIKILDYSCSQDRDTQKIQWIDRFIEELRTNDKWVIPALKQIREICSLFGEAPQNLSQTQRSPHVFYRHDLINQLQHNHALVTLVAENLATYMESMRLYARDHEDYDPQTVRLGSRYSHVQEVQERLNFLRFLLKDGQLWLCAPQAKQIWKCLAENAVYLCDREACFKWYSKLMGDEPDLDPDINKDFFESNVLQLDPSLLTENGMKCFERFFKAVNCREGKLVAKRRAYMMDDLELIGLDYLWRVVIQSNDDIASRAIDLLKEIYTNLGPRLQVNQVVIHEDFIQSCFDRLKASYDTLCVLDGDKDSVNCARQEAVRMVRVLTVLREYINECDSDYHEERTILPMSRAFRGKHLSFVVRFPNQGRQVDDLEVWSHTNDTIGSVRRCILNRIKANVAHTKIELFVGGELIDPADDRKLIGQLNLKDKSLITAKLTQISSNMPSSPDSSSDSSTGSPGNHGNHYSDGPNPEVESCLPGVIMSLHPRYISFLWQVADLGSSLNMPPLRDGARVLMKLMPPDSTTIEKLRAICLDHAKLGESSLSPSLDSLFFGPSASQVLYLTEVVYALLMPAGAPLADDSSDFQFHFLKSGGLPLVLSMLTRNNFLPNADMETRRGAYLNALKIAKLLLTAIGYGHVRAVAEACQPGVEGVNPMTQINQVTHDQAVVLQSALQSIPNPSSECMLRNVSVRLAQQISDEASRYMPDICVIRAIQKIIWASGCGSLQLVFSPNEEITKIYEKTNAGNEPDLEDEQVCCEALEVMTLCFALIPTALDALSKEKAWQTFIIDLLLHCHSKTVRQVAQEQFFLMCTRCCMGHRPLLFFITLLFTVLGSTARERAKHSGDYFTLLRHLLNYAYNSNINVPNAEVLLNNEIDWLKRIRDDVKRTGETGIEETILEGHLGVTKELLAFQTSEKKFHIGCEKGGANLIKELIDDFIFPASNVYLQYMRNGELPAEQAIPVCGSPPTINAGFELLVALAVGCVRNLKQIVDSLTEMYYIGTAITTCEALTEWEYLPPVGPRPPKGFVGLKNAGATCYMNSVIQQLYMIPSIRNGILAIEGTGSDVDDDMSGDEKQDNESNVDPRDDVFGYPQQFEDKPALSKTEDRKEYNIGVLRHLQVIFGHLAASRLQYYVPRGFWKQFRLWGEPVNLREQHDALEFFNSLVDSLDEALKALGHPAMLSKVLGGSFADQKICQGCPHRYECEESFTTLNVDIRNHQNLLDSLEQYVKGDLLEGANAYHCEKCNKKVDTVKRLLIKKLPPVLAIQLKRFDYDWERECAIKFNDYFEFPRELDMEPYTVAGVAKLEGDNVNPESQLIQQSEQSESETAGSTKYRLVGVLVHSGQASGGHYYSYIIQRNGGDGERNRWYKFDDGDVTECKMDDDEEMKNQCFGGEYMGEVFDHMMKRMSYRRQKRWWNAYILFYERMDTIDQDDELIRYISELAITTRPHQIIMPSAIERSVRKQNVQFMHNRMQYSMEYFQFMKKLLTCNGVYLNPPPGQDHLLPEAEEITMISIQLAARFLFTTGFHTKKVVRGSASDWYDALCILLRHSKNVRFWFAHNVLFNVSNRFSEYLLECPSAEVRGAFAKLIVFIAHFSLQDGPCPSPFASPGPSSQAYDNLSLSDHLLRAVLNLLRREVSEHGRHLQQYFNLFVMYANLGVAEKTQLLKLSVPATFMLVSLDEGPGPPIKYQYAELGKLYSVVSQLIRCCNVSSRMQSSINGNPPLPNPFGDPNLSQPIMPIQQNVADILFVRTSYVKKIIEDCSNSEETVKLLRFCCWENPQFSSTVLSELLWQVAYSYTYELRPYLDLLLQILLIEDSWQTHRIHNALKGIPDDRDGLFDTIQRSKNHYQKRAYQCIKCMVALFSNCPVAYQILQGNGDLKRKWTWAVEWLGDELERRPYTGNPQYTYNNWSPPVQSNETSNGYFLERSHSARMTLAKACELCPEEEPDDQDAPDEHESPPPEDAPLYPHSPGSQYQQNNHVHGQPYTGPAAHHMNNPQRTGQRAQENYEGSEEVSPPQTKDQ

| Kd [1] | Compound | also measured |
| --- | --- | --- |
| 440 µM | O=C(O)CNC(=O)c1ccc(S(=O)(=O)N2CCC3(CC2)OCc2ccccc23)cc1 |  |
| > 480 µM | O=C(O)CNC(=O)c1ccc(S(=O)(=O)N2CCN(c3ccccc3)CC2)cc1 |  |
| 520 µM | O=C(O)CNC(=O)c1ccc(S(=O)(=O)N2CCC(N3CCCC3)CC2)cc1 |  |
| 340 µM | O=C(O)CNC(=O)c1ccc(S(=O)(=O)N2CC=C(c3ccccc3)CC2)cc1 |  |
|  | CCC[C@H](NC(=O)/C(C#N)=C/c1cccc(Br)n1)c1ccccc1 | inhibition [2]: 45%; inhibition [3]: 30%; inhibition [4]: 50% |
| 160 µM | Cc1cc(S(=O)(=O)N2CCC(c3ccccc3)CC2)ccc1C(=O)NCC(=O)O |  |
| > 440 µM | O=C(O)CNC(=O)c1cccc(S(=O)(=O)N2CCC(c3ccccc3)CC2)c1 |  |
| 290 µM | O=C(O)CNC(=O)c1ccc(S(=O)(=O)N2CCc3ccccc3C2)cc1 |  |
| > 1000 µM | O=C(O)CNC(=O)c1ccc(S(=O)(=O)N2CC(c3ccccc3)C2)cc1 |  |
| > 640 µM | O=C(O)CNC(=O)c1ccc(S(=O)(=O)N2CCCC(c3ccccc3)CC2)cc1 (stereo not drawn) |  |
| 150 µM | O=C(O)CNC(=O)c1ccc(S(=O)(=O)N2CCC(c3ccccc3)CC2)cc1Cl |  |
| > 480 µM | O=C(O)CNC(=O)c1ccc(S(=O)(=O)N2Cc3ccccc3C2)cc1 |  |
| > 1000 µM | O=C(O)CNC(=O)c1ccc(S(=O)(=O)N2CCC(c3ccccc3)C2)cc1 (stereo not drawn) |  |
| > 1000 µM | O=C(O)CNC(=O)c1ccc(S(=O)(=O)N2CCC(N3CCOCC3)CC2)cc1 |  |
| > 1000 µM | Cn1cc(S(=O)(=O)N2CCC(c3ccccc3)CC2)cc1C(=O)NCC(=O)O |  |
| 370 µM | CN1CCN(C2CCN(S(=O)(=O)c3ccc(C(=O)NCC(=O)O)cc3)CC2)CC1 |  |
|  | N#CSc1cc(SC#N)c(N)nc1N | EC50 [5]: 7.2 µM; EC50 [6]: 3.9 µM; EC50 [7]: 8.6 µM; EC50 [8]: 6.9 µM; EC50 [9]: 4.9 µM |
| > 1000 µM | CN1CCC(NS(=O)(=O)c2ccc(C(=O)NCC(=O)O)cc2)CC1 |  |
| 410 µM | CN1CCC2(CC1)CCN(S(=O)(=O)c1ccc(C(=O)NCC(=O)O)cc1)CC2 |  |
|  | O=C(O)CNC(=O)c1ccc(S(=O)(=O)N2CCC(c3ccc(Cl)cc3)CC2)cn1 | remaining at 1 h, 1 µM [10]: > 90%; remaining at 1 h, 1 µM [11]: > 90% |
| > 760 µM | CN(C)C1CCN(S(=O)(=O)c2ccc(C(=O)NCC(=O)O)cc2)CC1 |  |
